Test results published in publication PMC11613437, “Prioritization of Eleven-Nineteen-Leukemia Inhibitors as Orally Available Drug Candidates for Acute Myeloid Leukemia” (Journal of Medicinal Chemistry, 2024).

Legend:
ENL YEATS domain = molecular target: T1, ENL YEATS domain (Homo sapiens, UniProt Q03111); experiment: Biolayer interferometry (BLI); type: binding; conditions: biotinylated ENL YEATS on SSA biosensors, 1:1 model
T1 construct: Biotinylated-ENL YEATS was immobilized onto SSA biosensors; biotin (biotinylated)
T1 sequence (Q03111 1-138 limits assumed): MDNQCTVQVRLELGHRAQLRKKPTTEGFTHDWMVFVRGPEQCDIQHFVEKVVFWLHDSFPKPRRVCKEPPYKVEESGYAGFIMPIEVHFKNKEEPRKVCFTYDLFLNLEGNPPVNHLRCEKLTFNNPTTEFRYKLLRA
Method: Superstreptavidin biosensors were first incubated in an assay buffer (20 mM Tris, pH 7.8, 300 mM NaCl, 0.05% Tween 20, 0.1% DMSO) for 15 min. Sensors were coated with 40–60 μg/mL of biotinylated ENL for 15 min at room temperature. Inhibitors were serially diluted across a 96-well plate in a volume of 200 μL. Association of samples to either ENL- or uncoated reference sensors was measured over 300 s and dissociation over 300 s with baseline measurements (buffer only) for 300 s. All assays were run with continuous 1000 rpm shaking. Data were analyzed using the OctetRED data analysis software with reference subtraction in which reference uncoated sensors and reference samples were subtracted. Then, global kinetic fit was performed for all sonogram curves with a 1:1 model to get KD values.

MV4-11 cells = experiment: Cell toxicity assay (CCK-8), MV4-11; type: cell-based; conditions: Homo sapiens, MV4-11; 72 h treatment (superscript a)
Method: Approximately 1 × 10^4 JURKAT, MOLM-13, MV4-11 and HEK293T cells in RPMI 1640 (no phenol red) (100 μL) were added to a 96-well plate and treated with DMSO or a compound at indicated concentrations for 72 h or 8 days. Cell viability was measured using the CCK-8 kit (Abcam, ab228554) according to the manufacturer’s instructions.

| Structure (SMILES) | Kd (ENL YEATS domain) [nM] | CC50 (MV4-11 cells) [µM] |
| --- | --- | --- |
| CC(C)[C@H]1CCN1Cc1cc2cnc(NC(=O)c3ccc4nncn4c3)cc2[nH]1 [SR-C-107 (R), (R)-N-(2-((2-Isopropylazetidin-1-yl)methyl)-1H-pyrrolo[3,2-c]pyridin-6-yl)-[1,2,4]triazolo[4,3-a]pyridine-6-carboxamide] | 144 | – |
| CC(C)C1CCN1Cc1ccc(CNC(=O)c2ccc3nncn3c2)cc1 (centres unmarked) [inhibitor 13] | – | 9.15 |
